# How the values were obtained:
# [1] = system: receptor-mediated Ca^2+ entry in neutrophils; conditions: cited from earlier work
# [2] = system: receptor-mediated Ca^2+ entry in stimulated platelets; conditions: cited from earlier work
# food intake in rats = assay: Food intake in fasted rats after single intragastric gavage; format: in vivo; conditions: for Food Intake: 5 mg/kg in saline, mean ± sem
# Method: Adult, male rats were fasted for 16 hours then administered with a single intragastric gavage of 1-[beta-[3-(4-Methoxyphenyl)propoxy]-4-methoxyphenethyl]-1H-imidazole.HCl at a dose of 5 mg/kg in saline in a volume of 0.5 ml, or saline alone (0.5 ml). There were 8 animals in each group. Food intake was measured at various timepoints over the following 24 hours.
# [3] = system: receptor-mediated Ca^2+ entry in endothelial cells; conditions: cited from earlier work
# [4] = cited from earlier work
# TRPV channels = conditions: cited from earlier work
smiles,measurement,setting,value
COc1ccc(CCCOC(Cn2ccnc2)c2ccc(OC)cc2)cc1 (stereo not drawn) [1-[β-[3-(4-methoxyphenyl)propoxy]-4-methoxyphenethyl]-1H-imidazole],inhibition of receptor-mediated Ca^2+ entry,[1],selective inhibitor
same,IC50,[2],8 to 12 µM
same,"food intake, trend vs saline","food intake in rats; 5 mg/kg gavage, after 3 h, 5 h, 6 h, 8 h, 9 h, 10 h and 24 h, p<0.10",strong trends for reduced food intake
same,Food Intake,"food intake in rats; 0.5 h after single intragastric gavage, rats fasted 16 h",2.4 ± 0.3 g
same,Food Intake,"food intake in rats; 1 h after single intragastric gavage, rats fasted 16 h",2.8 ± 0.3 g
same,Food Intake,"food intake in rats; 2 h after single intragastric gavage, rats fasted 16 h",2.9 ± 0.3 g
same,Food Intake,"food intake in rats; 3 h after single intragastric gavage, rats fasted 16 h",3.8 ± 0.4 g
same,Food Intake,"food intake in rats; 4 h after single intragastric gavage, rats fasted 16 h",4.9 ± 0.5 g
same,Food Intake,"food intake in rats; 5 h after single intragastric gavage, rats fasted 16 h",5.1 ± 0.5 g
same,Food Intake,"food intake in rats; 6 h after single intragastric gavage, rats fasted 16 h",6.3 ± 0.5 g
same,Food Intake,"food intake in rats; 7 h after single intragastric gavage, rats fasted 16 h",7.4 ± 0.6 g
same,Food Intake,"food intake in rats; 8 h after single intragastric gavage, rats fasted 16 h",8.2 ± 0.6 g
same,Food Intake,"food intake in rats; 9 h after single intragastric gavage, rats fasted 16 h",9.3 ± 0.6 g
same,Food Intake,"food intake in rats; 10 h after single intragastric gavage, rats fasted 16 h",10.3 ± 0.6 g
same,Food Intake,"food intake in rats; 11 h after single intragastric gavage, rats fasted 16 h",11.5 ± 0.6 g
same,Food Intake,"food intake in rats; 12 h after single intragastric gavage, rats fasted 16 h",12.4 ± 0.6 g
same,Food Intake,"food intake in rats; 24 h after single intragastric gavage, rats fasted 16 h",18.4 ± 0.8 g
same,food intake over the period of the study,"food intake in rats; rats fasted 16 h, 5 mg/kg single intragastric gavage in saline vs saline alone, 24 h",reduced food intake over the period of the study
same,inhibition of receptor-mediated Ca^2+ entry,[3],selective inhibitor
same,Solubility in water,[4],30 mg/mL
N.N.N.N.N.N.N.N.N.N.N.N.N.N.[Cl-].[Cl-].[Cl-].[Cl-].[Cl-].[Cl-].[O-2].[O-2].[Ru+3].[Ru+3].[Ru+4] [Ruthenium Red],block of TRPV channels,TRPV channels,blocks all TRPV channels
